The test system of one data set is MDA-MB-231 cells. Briefly: 5 day MTT cell growth assay, MDA-MB-231. Format: cell-based, human. The settings on record: Homo sapiens, MDA-MB-231, 120 h, read-out: IC50, inhibition of MDA-MB-231 cell growth.
Data set [1] deals with MDA-MB-231 breast cancer cells. In words: Annexin-V flow cytometry apoptosis, MDA-MB-231. The note with it: 24 hours. Format: cell-based, human. The protocol:
Further tests using Annexin-V flow cytometry (FACS) assays were conducted to more quantitatively assess the ability of gossypol to induce apoptosis in MDA-MB-231 breast cancer cells. […] It was observed that 5.0 μM of gossypol induced 59% of the MDA-MB-231 cells to undergo apoptosis. While the present invention is not limited to a particular mechanism(s), it is contemplated that induction of apoptosis by gossypol is dose-dependent. At administrations of 10.0 and 20.0 μM, respectively, gossypol induced 74% and 96% of cancer cells, again respectively, to undergo apoptosis. MDA-MB-231 cells overexpress Bcl-2 and Bcl-XL.
In still further embodiments, the present invention used cell level detection of apoptotic events by flow cytometry. Cells that had undergone apoptotic events were detected by flow cytometry using a FACSCAN instrument (Becton Dickinson, Franklin Lakes, N.J.) with 488-nm laser line and analyzed using CELL QUEST software (Becton Dickinson, Franklin Lakes, N.J.). Phosphatidylserine exposed on the outside of the cells (one of the major characteristics of apoptosis) was determined by TACSTM Annexin V-FITC Kit (Trevigen, Gaithersburg, Md.). Annexin V-FITC fluorescence is detected in FL-1, and propidium iodide was detected in FL-2. (Hail Jr., and R. Lotan, R. Cancer Epidemiol. Biomarkers Prev., 9:1293-1301 (2000)).
Apoptosis was further detected and quantified using Annexin-V-fluorescence assays. […] Cells were collected and washed with PBS and stained with Annexin-V-Fluorescein and propidium iodide (PI) following standard protocols. Stained cells were analyzed with a flow cytometer (Becton Dickinson) using 488 nm excitation and a 515 nm bandpass filter for fluorenscein detection, and a >600 nm filter for PI detection.

Data set [2] relates to androgen-independent prostate PC-3 xenograft. Briefly: PC-3 xenograft, (−)-gossypol and radiation (Example 20). The note with it: Table 15; mice treated with gossypol and/or radiation. Format: in vivo, nude mice. The protocol: In this experiment, 60 male 5 to 6 week old NCI athymic NCr-nu/nu nude mice were inoculated in each flank with an injection of about 5×10^6 PC-3 cells. The best 40 xenograft recipients were used. Tumors averaged about 70 mm^3. (−)-Gossypol compounds were first dissolved in ethanol and diluted with sterile water within 5 min to a final ethanol concentration of 10% prior to each administration. Irradiated test animals were restrained, placed under the X-ray head, and covered with lead shields to ensure that the tumor area was exposed to radiation. All oral administrations of (−)-gossypol and 10% alcohol were given by gavage.
The 40 best xenograft mice were divided into experimental groups as follows: radiation only (Groups 1 and 2), 2 Gy administered 5 times/week for 3 weeks, and daily oral administration of 10% alcohol (as vehicle control); radiation plus gossypol (Groups 3 and 4), 2 Gy administered 5 times a week for 3 weeks, and 10 mg/kg of (−)-gossypol administered orally 5 times/week for 4 weeks (8 mice each Group); gossypol only (Groups 5 and 6), 10 mg/kg (−)-gossypol administered orally every day for 4 weeks (8 mice each Group); vehicle control (Groups 7 and 8), daily oral administration of 10% alcohol (8 mice each Group as vehicle control); large tumor animals (combination of Groups 9-12), tumors allowed to reach 500 mm^3.
Other remaining tumors in this group appear pale yellowish and soft as compared with that in control group with hard solid and reddish appearance, indicating tumor blood supply was inhibited.

Data set [3] relates to human breast cancer xenograft MDA-MB-231. The settings on record: for inhibition of tumor growth: three weeks, day 29.
Procedure: The potential of gossypol compounds as anticancer therapeutics was further evaluated in MDA-231 xenograft mice. […] A control group of five mice received no gossypol. In the treated mice, gossypol was administered daily in two different oral doses, a 30 and a 90 mg/kg dose, for three weeks.
A group of 10 mice received an orally administered daily dose of 30 mg/kg gossypol starting at day 7 and lasting for 4 weeks. […] Each experimental group had 10 animals.
As a positive control, TAXOTERE was used at a dose of 7.5 mg/kg. Control group mice received either no treatment or vehicle alone. To achieve statistic significance, a minimum of 10 mice per group was used in the combination regimes.
For all tests, mice were randomized and then injected in the fat pad with 1-5×10^6 cells prepared in serum-free medium. The animals were measured and weighed twice each week during the treatment period, followed by twice a week measurements for an additional 4-6 weeks. A gross visual necropsy of each animal was performed at death or terminal sacrifice.
Data set [4] relates to human breast cancer MDA-MB-231 (2LMP) xenograft.
In the next data set the test system is PC-3 xenograft. The settings on record: Table 14; mice treated with gossypol and/or radiation.
Data set [5] has as its system androgen independent prostate cancer PC-3 xenograft. Briefly: PC-3 xenograft, (−)-gossypol alone and with docetaxel (Example 22). The settings on record: for weight loss: mice treated with gossypol.
The test system of data set [6] is A549 non-small cell lung carcinoma xenograft. Briefly: A549 non-small cell lung carcinoma xenograft, (−)-gossypol with paclitaxel. The note with it: Table 13; mice treated with gossypol and/or Paclitaxel.
The target of data set [7] is T1, Bcl-XL (Homo sapiens, UniProt Q07817, DEL45-84).
T1 construct: His-tag (N); made in house
T1 sequence (Q07817 with tags, fused parts or gaps DEL45-84 limits assumed): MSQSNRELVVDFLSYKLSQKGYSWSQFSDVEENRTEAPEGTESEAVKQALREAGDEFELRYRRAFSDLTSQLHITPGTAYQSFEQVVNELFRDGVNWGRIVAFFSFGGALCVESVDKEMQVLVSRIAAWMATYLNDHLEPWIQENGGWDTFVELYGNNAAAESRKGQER
Briefly: FP binding assay, Flu-Bak-BH3 16-mer tracer and His-fused Bcl-XL. The settings on record: FIG. 3, 6A, 6B.

The next data set has as its target T2, Bcl-2 (Homo sapiens, UniProt P10415).
T2 construct: purchased Santa Cruz Biotechnology
Briefly: FP binding assay, Flu-Bad-25 peptide and GST-fusion Bcl-2 (FIG. 4, 45).

In data set [8] the target is T1, Bcl-XL. In words: FP binding assay, Flu-Bid 21-residue peptide and Bcl-XL (FIG. 5, 46).
Data set [9] addresses T1, Bcl-XL. Briefly: 15N HSQC NMR binding to Bcl-XL.
Data set [10] has as its system MCF-7 breast cancer cell line. In words: Growth inhibition with TAXOL in fixed ratio, MCF-7. Format: cell-based, human. The note with it: combinations in a fixed ratio to TAXOL.
Data set [11] in a line: Elimination half-life in humans. Format: in vivo. The source says:
In some embodiments, the present invention contemplates that the longer residency of the (+)-gossypol enantiomer is potentially beneficial in certain prolonged gossypol treatments methods. Therefore, in some embodiments, the (+)-gossypol enantiomer is potentially more toxic to cells. […]

Where [12] appears, read: Table 8, docetaxel 7.5 mg/kg i.v. q week for 3 weeks, alone.

Experimental findings from patent publication US8163805B2, “Small molecule antagonists of Bcl-2 family proteins” (The Regents of the University of Michigan, priority 2001, dated 2012) are described below.

Like-named read-outs stand apart in the source and are kept apart here.

T2 sequence (P10415 1-205 limits assumed): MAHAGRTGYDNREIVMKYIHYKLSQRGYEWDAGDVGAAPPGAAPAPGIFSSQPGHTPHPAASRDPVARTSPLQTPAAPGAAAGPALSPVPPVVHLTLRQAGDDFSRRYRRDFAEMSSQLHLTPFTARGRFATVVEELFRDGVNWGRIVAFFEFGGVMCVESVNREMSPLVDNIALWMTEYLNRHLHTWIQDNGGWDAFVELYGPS
Procedure for MDA-MB-231 cells: For example, the ability of gossypol compounds to inhibit MDA-MB-231 cell growth was tested in a 5 day MTT assay.
Cells were seeded in 24 or 96-well-plates and gossypol compounds were prepared at 2-10 fold dilutions in suitable medium. Inhibition of cell viability was determined by treating the cells with the gossypol compounds for 24 hrs. […] Inhibition of cell growth was determined by treating cells with gossypol compounds for 3-6 days. […] In some embodiments, MTT assays are used to determine cell inhibition.
Absorbance at 540 nm is used to measure the amount of formazan product.

As for `Cc1cc2c(C(C)C)c(O)c(O)c(C=O)c2c(O)c1-c1c(C)cc2c(C(C)C)c(O)c(O)c(C=O)c2c1O` (racemic) [gossypol], in the data set on MDA-MB-231 cells, the half-inhibitory concentration (IC50) amounted to 2000 nM. For the same compound, the “cells induced to undergo apoptosis” value in data set [1] (5.0 μM) was determined as 59%; in data set [1] (10.0 μM), 74%; in data set [1] (20.0 μM) it was 96%. Further, the weight loss entry in [2] is “There was no significant weight loss”; with PC-3 xenograft it was “There was no significant weight loss”; in [5] (Table 9), “There was no weight loss in mice”; in data set [5] (Table 10) it was “There was no weight loss in mice”; in data set [6], “There was no weight loss in mice”. In addition, the “inhibition of tumor growth” value in data set [3] (30 mg/kg oral daily) and in [3] (90 mg/kg oral daily) was “more than 70%” in each case. Also, in [3] (30 and 90 mg/kg oral daily), the “weight loss or deaths” value is reported as “No weight loss or deaths”. For the same compound, in data set [4] (Table 8, mice treated with gossypol), the “weight loss or death” value is recorded as “There was no weight loss or death in”. The “tumor growth inhibition on day 42” value in [5] (Table 9, PC-3 flank xenografts (~100 mm^3 at start), NCr-nu nude mouse, 15 mg/kg daily p.o., alone) is listed as “(15.6% on day 42). The (−)-gossypol”. Moreover, in data set [5] (Table 10, PC-3 flank xenografts (~120 mm^3 at start), NCr-nu nude mouse, daily p.o. for 28 days, alone (racemic 15 mg/kg)), the “tumor growth inhibition on day 56 compared to vehicle controls” value was “(39% on day 56, p = 0.145) compared”.

In the case of `CC1=C(C2=C(C)C(=O)c3c(c(C=O)c(O)c(O)c3C(C)C)C2=O)C(=O)c2c(C=O)c(O)c(O)c(C(C)C)c2C1=O` (racemic) [gossypolone], the “inhibition of binding between Bak BH3 peptide and Bcl-XL” value on Bcl-XL [7] is “competitive inhibition of Bak BH3 peptide binding to Bcl-XL protein”.

For `Cc1cc2c(C(C)C)c(O)c(O)c(C=O)c2c(O)c1-c1c(C)cc2c(C(C)C)c(O)c(O)c(C=O)c2c1O` [(+)-gossypol], on Bcl-2 (FIG. 4), the “inhibition of binding between Bid BH3 peptide and Bcl-2” value was “directly inhibit binding between Bid BH3 peptide and Bcl-2”. The “inhibition of binding between Bad BH3 peptide and Bcl-XL” value on Bcl-XL [8] is “directly inhibit binding between Bad BH3 peptide and Bcl-XL”. Besides, the “binding to Bcl-XL by NMR” value on Bcl-XL [9] was “bind to the BH3 binding groove in Bcl-XL”. Besides, in data set [10], the half-maximal inhibitory concentration (IC50) came out at 22900 nM. Also, in [11], the “T1/2 of elimination relative to (−)-gossypol” value was 29 times.

For `CCN=Cc1c(O)c(O)c(C(C)C)c2cc(C)c(-c3c(C)cc4c(C(C)C)c(O)c(O)c(C=NCC)c4c3O)c(O)c12` [(−)-gossypol ethyl Schiff's base], the “inhibition of binding between Bak BH3 peptide and Bcl-XL” value at Bcl-XL [7] is reported as “time-dependent inhibition”.

`CSCC[C@H](NC(=O)[C@H](CCCNC(=N)N)NC(=O)[C@H](CCCNC(=N)N)NC(=O)[C@H](CC(C)C)NC(=O)[C@H](CCC(=O)O)NC(=O)[C@H](CCCNC(=N)N)NC(=O)CNC(=O)[C@H](Cc1ccc(O)cc1)NC(=O)[C@H](CCCNC(=N)N)NC(=O)[C@H](CCC(N)=O)NC(=O)[C@H](C)NC(=O)[C@H](C)NC(=O)[C@H](Cc1c[nH]c2ccccc12)NC(=O)[C@H](CC(C)C)NC(=O)[C@H](CC(N)=O)NC(=O)c1ccc2c(c1)C1(OC2=O)c2ccc(O)cc2Oc2cc(O)ccc21)C(=O)N[C@@H](CO)C(=O)N[C@@H](CC(=O)O)C(=O)N[C@@H](CCC(=O)O)C(=O)N[C@@H](Cc1ccccc1)C(=O)N[C@H](C(=O)N[C@@H](CC(=O)O)C(=O)N[C@@H](CO)C(=O)N[C@@H](Cc1ccccc1)C(=O)N[C@@H](CCCCN)C(=O)N[C@@H](CCCCN)C(=O)O)C(C)C` [Bad 25-mer BH3 peptide, reference compound] returned a Kd at Bcl-2 (FIG. 26) of 6.9 nM.

In the case of `CC(=O)O[C@@]12CO[C@@H]1C[C@H](O)[C@@]1(C)C(=O)[C@H](O)C3=C(C)[C@@H](OC(=O)[C@H](O)[C@@H](NC(=O)OC(C)(C)C)c4ccccc4)C[C@@](O)([C@@H](OC(=O)c4ccccc4)[C@H]21)C3(C)C` [Docetaxel, docetaxel, reference compound], in data set [4] (setting [12]), the tumor growth inhibition entry was “achieved about 70% tumor growth” and the “tumors grew back, time after treatment stopped” value was “back 2-3 weeks after treatment”. Also, in [4] (second round from day 45, tumors about 2,000 mm^3), the “tumor growth in second round of treatment” value is listed as “continued to grow”.
